Laboratory results: patent US20090087909A1, “Use of Trehalose in Conifer Somatic Embryogenesis to Increase Germination Vigor” (Weyerhaeuser Company, priority 2007, published 2009)

System: Somatic embryos of Loblolly pine, genotypes C and D
Assay: Germination rate, yield, germinants/ml, root and hypocotyl length, genotypes C and D (Example 4)
Type: cell-based, Loblolly pine (Pinus taeda)
Method: Methods: Somatic embryos of Loblolly pine, genotypes C and D, were cultured as described in EXAMPLE 1 up to incubation in the maintenance media. After incubation in maintenance media using the methods described in EXAMPLE 1, advanced early stage somatic embryos were plated on semi-solid development medium BM3 (with 25 ppm ABA, 1% glucose and 2.5% maltose) at 25 embryos per plate, 15 plates per genotype. Specifically, at five weeks after plating, the media for 10 treatment plates per genotype were replaced with modified development media BM3 containing 5 ppm ABA instead of 25 ppm ABA. […]
After development, the embryos were transferred to stratification medium BM4, and germinated on medium BM5, as described in EXAMPLE 1. After 6 weeks incubation on germination medium, the embryos were assessed for germination rate, root length, hypocotyls length, and epicotyl length. […]
Plate yield was determined during singulation at eight weeks by counting the number of embryos present. […]
Data for germination rate was analyzed with a generalized linear model with a logit link. Yield, germinants/ml, root length, and hypocotyl length data were analyzed with a mixed linear model. […] When variance among all ten treatments was detected, the response means for the trehalose treatments only were compared using Fisher's LSD for multiple comparisons.

`OC[C@H]1O[C@H](O[C@H]2O[C@H](CO)[C@@H](O)[C@H](O)[C@H]2O)[C@H](O)[C@@H](O)[C@@H]1O` [trehalose, α-D-glucopyranosyl-[1,1]-α-D-glucopyranoside] was tested, and the “Hypocotyl Length LS mean” value (combined genotypes C and D) was “positive effect on the hypocotyl length” and the “Root Length genotype C mean” value (genotype C) was “induces greater root length development”.
